{"source": "paper PMC8145564", "about": "“Phenolic Compounds from Carissa spinarum Are Characterized by Their Antioxidant, Anti-Inflammatory and Hepatoprotective Activities” (Antioxidants, 2021)", "key": {"L02 cells [1]": {"system": "L02 cells", "experiment": "Hepatoprotective activity on L02 cells against H2O2-induced oxidative stress (SRB cell viability)", "assay_type": "cell-based", "conditions": "then 300 µM H2O2 for 4 h, % of normal control, H2O2 model group 68.2% (65.2% for vitamin C); for viability at 5 µM: Homo sapiens, L02, 12 h pretreatment", "experimental": "The L02 cells were purchased from BeNa Culture Collection Company (BNCC, Beijing, China) and cultured in RPMI-1640 medium supplemented with 10% fetal bovine serum (FBS) and 1% penicillin–streptomycin solution at 37 °C under 5% CO2 in a humidified incubator. The H2O2 induced oxidative stress model of L02 cell was established according to the reported method with slight modifications. Firstly, 120 µL L02 cell suspension (1 × 10^4 cells) was seeded in a 96-well plate and incubated for 24 h, followed by the addition of 15 µL PBS buffer (corresponding to the addition of tested samples). […] The cell viability was evaluated by the SRB test kit (BestBio, Shanghai, China) following the manufacturer’s instructions. According to the above result, after the 24 h incubation, the L02 cells were pretreated with 15 µL samples of various concentrations or PBS (H2O2-induced model and normal control group) for 12 h. Then, 15 µL H2O2 solution (300 µM) or PBS (normal control group) was added and maintained for 4 h. Finally, the cell viability was tested by the SRB method and expressed as a percentage of the normal control group. Each group was performed in triplicate."}, "rhCOX-2": {"target": "T1, rhCOX-2 (Homo sapiens, UniProt P35354)", "T1 sequence (P35354 18-604)": "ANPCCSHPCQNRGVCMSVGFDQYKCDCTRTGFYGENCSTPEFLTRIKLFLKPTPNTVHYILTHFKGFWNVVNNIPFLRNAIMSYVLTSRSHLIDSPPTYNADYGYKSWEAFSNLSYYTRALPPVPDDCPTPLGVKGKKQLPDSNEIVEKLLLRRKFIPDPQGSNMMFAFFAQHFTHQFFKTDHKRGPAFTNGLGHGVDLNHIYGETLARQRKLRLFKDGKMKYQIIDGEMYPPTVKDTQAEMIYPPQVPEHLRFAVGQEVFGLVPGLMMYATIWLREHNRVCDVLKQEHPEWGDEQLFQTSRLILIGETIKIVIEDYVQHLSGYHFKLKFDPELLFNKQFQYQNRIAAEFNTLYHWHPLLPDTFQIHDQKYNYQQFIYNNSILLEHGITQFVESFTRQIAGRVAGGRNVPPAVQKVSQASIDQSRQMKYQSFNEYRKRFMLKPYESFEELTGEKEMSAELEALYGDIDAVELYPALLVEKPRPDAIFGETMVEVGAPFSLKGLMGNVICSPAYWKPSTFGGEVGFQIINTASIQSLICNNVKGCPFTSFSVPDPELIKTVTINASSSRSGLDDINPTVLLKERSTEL", "experiment": "COX-2 inhibition assay (COX-2 inhibitor screening kit, fluorescence probe method)", "procedure": "COX-2 inhibition activity was screened using a commercial assay kit by the fluorescence probe method, following the manufacturer’s instructions, based on a two-step reaction: the substrate (arachidonic acid) was firstly catalyzed by COX-2 to generate PGG2, which was then further catalyzed by COX-2 to produce PGH2. During the second step, the probe without fluorescence added in the reaction system was simultaneously catalyzed to probe with strong fluorescence. […] After incubation for 10 min at 37 °C, 5 µL COX-2 substrate and 5 µL COX-2 probe were added and incubated in darkness for 10 min. Then, the fluorescence intensity was recorded by microplate reader with the excitation wavelength at 560 nm and the emission wavelength at 590 nm. The COX-2 activity inhibition percentage was calculated by the following equation: COX-2 activity inhibition (%) = [(F100% activity control − Fsample)/(F100% activity control − Fblank control)] × 100%(2) where F100% activity control, Fsample and Fblank control represent the fluorescence intensity of the 100% enzyme activity control, samples or positive control, and blank control, respectively."}, "L02 cells [2]": {"system": "L02 cells", "experiment": "Quantitation of intracellular ROS (DCFH-DA) in H2O2-induced L02 cells", "assay_type": "cell-based", "conditions": "5 µM final concentration, DCFH-DA fluorescence", "experimental": "The quantitation of intracellular ROS was detected by the ROS assay kit purchased from Beyotime (Shanghai, China) following the manufacturer’s instructions. The cell pretreatment was the same as hepatoprotective activity screening. Four hours later, after the addition of H2O2, the cells were incubated with 10 µM DCFH-DA (final concentration in RPMI-1640 medium) for 30 min, and were then washed three times with medium. Finally, the fluorescence intensity was recorded by a microplate reader with the excitation wavelength at 488 nm and the emission wavelength at 525 nm and then the fluorescence photos were taken by a cell imaging multi-mode reader (Cytation 1, BioTek, Winooski, VT, USA). Each group was performed in triplicate and the fluorescence values were calibrated by the corresponding cell viabilities using the SRB method."}, "[3]": {"experiment": "Ferric reducing antioxidant power (FRAP) assay", "assay_type": "biochemical", "conditions": "for FRAP total antioxidant activity (result in words): isolated compounds, 6.25 to 100 µM, positive control vitamin C", "experimental": "The FRAP assay was performed according to the methodology reported in [26, 27] with minor modifications. Briefly, the FRAP working solution, composed of 300 mM acetate buffer (pH 3.6), 10 mM TPTZ solution and 20 mM FeCl3·6H2O solution in a ratio of 10:1:1 (v/v/v), was freshly prepared and warmed at 37 °C before use. Then, 190 µL FRAP working solution and 10 µL samples were added in 96-well plates and incubated at 37 °C for 10 min. The absorbance of the reaction mixture was collected by a microplate reader at 593 nm. A standard curve was established by FeSO4 at final concentrations ranging from 1.56 to 200 µM, and the total antioxidant activities of the extracts, compounds and positive controls (vitamin C) were calculated by the standard curve and expressed in terms of the FeSO4 value (µM). All the results were shown by the average values of the three biological replications."}, "[4]": {"experiment": "DPPH radical scavenging activity assay", "assay_type": "biochemical", "conditions": "for Antioxidant potential in DPPH and FRAP (result in words): both methods (DPPH and FRAP); for IC50: isolated compounds, final concentrations 6.25 to 100 µM", "experimental": "The 2,2-diphenyl-1-picrylhydrazyl (DPPH) radical scavenging abilities of the C. spinarum extracts and isolated compounds were assessed by the previously reported method. The reaction mixtures containing 190 µL DPPH solution (100 µM) and 10 µL samples (extracts or compounds) or positive control (vitamin C) solutions with various concentrations or blank control (methanol) were placed in the 96-well plate, and incubated in darkness at room temperature for 30 min. Then, the absorbance of the reaction mixture was measured by the microplate reader at 517 nm. All groups were tested in triplicate and the DPPH radical scavenging activity was calculated by the following equation:DPPH-radical scavenging percentage (%) = [(Acontrol − Asample)/Acontrol] × 100%(1)\nAcontrol and Asample represent the absorbance of the blank control and samples or positive control, respectively. Additionally, the IC50 values, which were defined as the effective sample concentration when DPPH radical was scavenged by 50%, were calculated by the GraphPad Prism software."}}, "note": "“Also recorded” adds a separate entry of the source. Marks after values point to notes of the source that are not given here."}
{"smiles": "COc1cc([C@H]2c3cc(O)c(OC)cc3C[C@@H](CO)[C@@H]2CO[C@@H]2O[C@H](CO)[C@@H](O)[C@H](O)[C@H]2O)ccc1O", "note": "[Compound 2, (+)-isolariciresinol 3a-O-β-D-glucopyranoside]", "values": [{"measurement": "viability at 5 µM", "setting": "L02 cells [1]", "result": 79.4, "unit": "%"}, {"measurement": "IC50", "setting": "rhCOX-2", "result": 0.3, "unit": "µM"}, {"measurement": "ROS quantity versus H2O2-induced model group", "setting": "L02 cells [2]", "result": "statistically significant decreases in ROS quantity"}, {"measurement": "FRAP total antioxidant activity (result in words)", "setting": "[3]", "result": "higher reducing capacities than the positive control"}]}
{"smiles": "CC(=O)c1ccccc1O[C@@H]1OC(CO[C@@H]2OC[C@@H](O)[C@H](O)[C@H]2O)[C@@H](O)[C@H](O)[C@H]1O", "note": "(stereo partly drawn) [Compound 5, acetophenone-2-O-β-xylopyranosyl-(1→6)-O-β-glucopyranoside]", "values": [{"measurement": "Antioxidant potential in DPPH and FRAP (result in words)", "setting": "[4]", "result": "no obvious antioxidant potential"}]}
{"smiles": "COc1cc([C@@H](O)[C@@H](C)O)ccc1O", "note": "[Compound 6, erythro-1-(3-methoxy-4-hydroxy-phenyl)-propan-1,2-diol]", "values": [{"measurement": "FRAP total antioxidant activity (result in words)", "setting": "[3]", "result": "higher reducing capacities than the positive control"}]}
{"smiles": "COc1cc([C@@H](O)[C@H](C)O)ccc1O", "note": "[Compound 7, threo-1-(3-methoxy-4-hydroxy-phenyl)-propan-1,2-diol]", "values": [{"measurement": "FRAP total antioxidant activity (result in words)", "setting": "[3]", "result": "higher reducing capacities than the positive control"}]}
{"smiles": "O=C(O)Cc1cccc(C(=O)O)c1", "note": "[Compound 8, 3-carboxymethyl-benzoic acid]", "values": [{"measurement": "Antioxidant potential in DPPH and FRAP (result in words)", "setting": "[4]", "result": "no obvious antioxidant potential"}, {"measurement": "DPPH scavenging rate at the highest tested concentration", "setting": "[4]; highest tested concentration (100 µM)", "result": "lower than 10%"}, {"measurement": "COX-2 inhibition activity (result in words)", "setting": "rhCOX-2; all tested concentrations, 0.04 to 25 µM", "result": "no COX-2 ability in all tested concentrations; also recorded: did not show any activities"}, {"measurement": "FRAP total antioxidant activity (result in words)", "setting": "[3]", "result": "did not show any activities"}]}
{"smiles": "O=C(O)c1ccc(O)c(O)c1", "note": "[Compound 9, protocatechuic acid]", "values": [{"measurement": "viability at 5 µM", "setting": "L02 cells [1]", "result": 80.9, "unit": "%"}, {"measurement": "IC50", "setting": "[4]; means ± SD (n = 3)", "result": "16.5 ± 1.2", "unit": "µM"}, {"measurement": "ROS quantity versus H2O2-induced model group", "setting": "L02 cells [2]", "result": "statistically significant decreases in ROS quantity"}, {"measurement": "FRAP total antioxidant activity (result in words)", "setting": "[3]", "result": "higher reducing capacities than the positive control"}]}
{"smiles": "O=C1O[C@H]([C@@H](O)CO)C(O)=C1O", "note": "[Vitamin C, vitamin C, reference compound]", "values": [{"measurement": "Viability of L02 cells", "setting": "L02 cells [1]; 5 µM, 12 h pretreatment", "result": 82.7, "unit": "%"}, {"measurement": "DPPH IC50", "setting": "[4]; extracts of C. spinarum root bark, 30 min, 517 nm, means ± SD (n = 3)", "result": "4.5 ± 0.1 ^d µg/mL"}, {"measurement": "IC50", "setting": "[4]; means ± SD (n = 3)", "result": "25.5 ± 0.3", "unit": "µM"}, {"measurement": "FRAP", "setting": "[3]; extracts of C. spinarum root bark, means ± SD (n = 3)", "result": "8.9 ± 1.2 ^b mmol Fe^2+/g"}]}
